Legend:
KPC1361 cells = test: MHC-I surface expression in Pikfyve-wildtype, Pikfyve-null, Atg5-null or Atg7-null cells; format: cell-based, mouse; details: Pikfyve-wildtype cells, autophagy inhibition
Source text: FIG. 1F (Left) is line graphs of flow cytometry measuring MHC-I surface expression in KPC1361 cells with or without Pikfyve KO, treated with DMSO, Bafilomycin, chloroquine, Apilimod, or ESK981; (Right) is bar graphs of quantification of flow cytometry measuring MHC-I surface expression in KPC1361 cells with or without Pikfyve KO, treated with DMSO, Bafilomycin, chloroquine, Apilimod, or ESK981.
FIG. 1G (Left) is a line graph of flow cytometry measuring MHC-I surface expression in KPC1361 cells with non-targeting single-guide RNA (control), or single-guide RNAs depleting Atg5 or Atg7, treated with DMSO or Apilimod; (Right) is a bar graph of quantification of flow cytometry measuring MHC-I surface expression in KPC1361 cells with non-targeting single-guide RNA (control), or single-guide RNAs depleting Atg5 or Atg7, treated with DMSO or Apilimod.
Cancer cells or the OVA-expressing cancer cells treated in vitro were harvested from dishes, resuspended in buffer MACS (PBS containing 2% FBS and 2 mM EDTA), and stained with Zombie NIR™ Fixable Viability kit (BioLegend: #423106) and fluorophore-conjugated antibody against MHC-I or PE-conjugated antibody against SIINFEKL bound H-2Kb (BioLegend; catalog #141604), respectively. The cells were next washed twice with 1 ml MACS and fixed with 2% paraformaldehyde in PBS for 15 minutes at room temperature. The cells were then subjected to the flow cytometer (SONY SH800S) for measuring surface expression of MHC-I or SIINFEKL bound H-2Kb, respectively. Antibodies used in this study include anti-H-2Kb (BD Biosciences; catalog #553570) and anti-H-2Db (28-14-8; Thermo Fisher Scientific; catalog #12-5999-82) for KPC1361 and B16-F10, anti-H-2Kd (BD Biosciences; catalog #562004) and anti-H-2Dd (BD Biosciences; catalog #553580) for 4T1, anti-H-2Kq (BD Biosciences; catalog #742296) and anti-H-2Dq/H-2Lq (BD Biosciences; catalog #744853) for MyC-CaP, and anti-HLA-A,B,C (clone w6/32; BioLegend; catalog #311406) for human cancer cells.

cDCs = test: Phenotype of cultured cDCs (flow cytometry, western blot); format: cell-based, mice; details: DCs in vitro, each agent
Protocol: FIG. 13G (Left) is a line graph of the relative median fluorescent intensity of the surface MHC-I on DMSO or apilimod-treated cDCs treated for 20 hours after 6 days of culture. FIG. 13G (Right) is a box and whisker plot of the surface MHC-I on DMSO or apilimod-treated cDCs treated for 20 hours after 6 days of culture
FIG. 13H a western blot showing the total vinculin, loading control, and total MHC-I in DMSO or apilimod-treated, 20 hours, cDC lysates after 6 days of culture.
FIG. 13K (Left) is a line graph of the relative median fluorescent intensity of the surface MHC-II on DMSO or apilimod-treated, 20 hours, cDCs treated after 6 days of culture. FIG. 13K (Right) is a box and whisker plot of the surface MHC-II on DMSO or apilimod-treated, 20 hours, cDCs treated after 6 days of culture.
FIG. 13L a western blot showing the total vinculin, loading control, and total MHC-II in DMSO or apilimod-treated, 20 hours, cDC lysates after 6 days of culture.
FIG. 13N a western blot showing the total histone H3, loading control, and total CD80 and CD86 in apilimod-treated, 20 hours, PIKfyve WT vs. KO cDC lysates after 6 days of culture.
FIG. 13P is a series of six scatter plots of surface CD80 and CD86 on DMSO or apilimod-treated cDCs, with or without 20 hours of PolyI:C, 50 μg/ml, or lipopolysaccharide (LPS), 50 ng/ml, treatment after 6 days of culture.
FIG. 13R a western blot showing the total vinculin, loading control, and total CD40 in DMSO or apilimod-treated, 20 hours, cDC lysates treated with or without additional LPS, 50 ng/ml, after 6 days of culture day 6.
FIG. 19B is a line graph of representative density plot of median fluorescent intensity of surface XCR1 in DMSO or apilimod-treated, 20 hours, cDCs after 6 days of culture.
FIG. 26G is a line graph of the relative median fluorescent intensity of the surface MHC-I, H2-kb, H2-kd, on DMSO or apilimod-treated cDCs with or without PolyI:C, 50 μg/ml or LPS, 50 ng/ml, treatment, 20 hours, after 6 days of culture.
FIG. 26H is a line graph of the relative median fluorescent intensity of the surface MHC-II, MHC-IA-IE, on DMSO or apilimod-treated cDCs with or without PolyI:C, 50 μg/ml or LPS, 50 ng/ml, treatment, 20 hours, after 6 days of culture.

B16F10-OVA tumors = test: B16F10-OVA tumor model with PolyI:C adjuvant; format: in vivo, mice; details: treatment after inoculation, each agent alone
Protocol: FIG. 16F is a series of four line graphs of the Individual growth curves of subcutaneous B16F10-OVA tumor volume following 21 days of pre-treatment with vehicle versus apilimod, 30 mg/kg daily, with or without subcutaneous injection of water versus PolyI:C, 100 μg on Day 1 and Day 14.
FIG. 16H is a series of four line graphs of the Individual growth curves of subcutaneous B16F10-OVA tumor volume in mice treated with vehicle or apilimod, 30 mg/kg daily, with or without a subcutaneous injection of water versus PolyI:C, 100 μg once weekly.
FIG. 26I is a line graph of the subcutaneous tumor volume of B16F10-OVA tumors following 21 days of pre-treatment with vehicle versus apilimod, 30 mg/kg×5 days/week, with or without subcutaneous injection of water versus PolyI:C, 100 μg on Day 1 and Day 14.
FIG. 26J is a line graph of the subcutaneous tumor volume of B16F10-OVA tumors in mice treated with vehicle or apilimod, 30 mg/kg×5 days/week, with or without subcutaneous injection of water versus PolyI:C, 100 μg once weekly.

| Molecule | MHC-I surface expression (KPC1361 cells) | MHC-I and MHC-II expression (cDCs) | tumor growth (B16F10-OVA tumors) |
| --- | --- | --- | --- |
| CCN(CC)CCCC(C)Nc1ccnc2cc(Cl)ccc12 (centres unmarked) [chloroquine] | induced |  |  |
| PolyI:C |  | stimulated | modest tumor growth inhibition |
| bafilomycin | induced |  |  |
| lipopolysaccharide [LPS] |  | stimulated |  |
